Source: patent US9901615B2, “Method for treatment of gastric ulcers” (priority 2015, dated 2018)
Where no end group is shown, it is not given here.

Tests used:
[1] = Eye irritation test of TP4 in New Zealand White rabbits; type: in vivo; conditions: for ocular appearance: rabbits treated with 50 mg/kg TP4 or SDS for 7 days, observed daily (FIG. 17A); for Abnormality iris, grading / Chemosis, grading / Conjunctivae redness, grading / Corneal opacity, grading: rabbits, OECD 405 grading
Experimental: Healthy young adults rabbit eyes were treated with TP4, PBS (vehicle control), or 0.1% SDS (positive control). […] […] Clinical signs were recorded during the test period, and grades were assigned for ocular reactions during examination.

Dermal toxicity of TP4 = type: in vivo, C3H/HeN mice; conditions: for appearance of the skin: mice, 48 h post-exposure, 125 mg/kg TP4 or 20% SDS (FIG. 17B)
Experimental: TP4 (125 mg/kg) was applied onto the mouse skin (topical).

[2] = Eye irritation test of Epi-1 in rabbits; conditions: for Reversibility: 7 days then recovery
Experimental: This study used healthy young adults of the New Zealand white albino rabbit breed. […] The eyes were examined on days 1, 3, 5, and 7, and then allowed to recover until day 14; at this time, clinical observation scores were recorded, and grades assigned for ocular reactions observed during each examination.

H. pylori [3] = experiment: Transmission electron microscopy (Epi-1); type: cell-based, Helicobacter pylori
Experimental: Transmission electron microscopy was used to examine Epi-1 induced morphological changes of H. pylori. The samples were fixed and processed as previously described. All samples were examined with an FEI Tecnai G2 F20 S-TWIN transmission electron microscope (FEI Company, Hillsboro, Oreg.) operating at an accelerating voltage of 80 kV. Images were recorded with a charge-coupled device camera at various magnifications.

[4] = system: resistant clinical isolate CI-HC-028; experiment: Time-based susceptibility of resistant isolate to TP4 and antibiotics; type: cell-based, Helicobacter pylori; conditions: CI-HC-028, at MIC
Experimental: (§1) TP4 peptide solutions (100 μl) at concentrations corresponding to ¼, ½, 1, 2, and 4 fold the MIC were prepared and added to an equal volume of solution containing H. pylori counts of approximately 10^7 CFU mL-1 onto a microtitre plate. The plates were incubated at 37° C., and samples were collected at 1, 3, 6, 12, and 24 h and plated with appropriate dilutions onto blood agar plates; bacterial counts were enumerated and expressed as mean log (CFU mL-1) with standard error.
The bactericidal activities of TP4 and conventional antibiotics against resistant clinical isolate CI-HC-028 were compared. Certain resistant strains of H. pylori was previously reported to be resistant to metronidazole and clarithromycin 27. […] Thus, there is no correlation between multidrug resistant (MDR) phenotype and vulnerability to TP4.

H. pylori [5] = experiment: Development of drug resistance on passage at sub-inhibitory doses; type: cell-based, Helicobacter pylori; conditions: passages at sub-inhibitory doses in vitro
Text: A major driver of drug resistance development is inappropriate antibiotic use and poor compliance with therapeutic regimens. 28 Here, we established a model for simulating conditions of drug resistance emergence: bacteria were exposed to sub-inhibitory doses of antibiotics (AMOX, CLRN, METZ), or peptide TP4 in vitro (see supplementary material methods).

H. pylori [6] = experiment: Transmission electron microscopy (TP4); type: cell-based, Helicobacter pylori; conditions: 2 h post exposure
Experimental: Transmission electron microscopy (TEM) was used to examine the TP4 mechanism of action on H. pylori, overall cell morphology, TP4 translocation into H. pylori, and interaction of TP4 with internal targets. H. pylori overnight cultures from BHI-blood agar plates were collected, and 0.1 OD inocula were incubated with TP4, Amoxicillin, and/or PBS (PBS only: negative control). […] The cells were then fixed and processed for TEM using previously described methods, with some modifications. Briefly, cells were dehydrated in a graduated series of ethanol, followed by resin polymerization at 65° C. for 3 days. An EM ultramicrotome was used to slice thin sections of 70- to 80-nm thickness from the polymerized blocks, which were then loaded on 400-mesh copper grids. The sections were post stained with 2% uranyl acetate for 15 min and then lead citrate for 5 min, before being mounted for observation using an FEI Tecnai G2 F20 S-TWIN transmission electron microscope (FEI Company, Hillsboro, Oreg.) operating at 80 keV. […] Each grid was scrutinized with the same settings. Images were recorded with a 4MP SPOT Insight charge-coupled-device (CCD) camera.

H. pylori ATCC 700392 = type: cell-based, Helicobacter pylori
Experimental: (§2) H. pylori cells undergoing exponential growth were suspended in sterile phosphate-buffered saline (PBS), and adjusted to 0.05 OD using BHI broth; the inoculum was dispensed onto a microtitre plate. Peptide TP4 was prepared at various concentrations (0.04 to 50 μg mL-1) using PBS. Antibiotic resistant clinical isolate CI-HC-028 and three reference strains were used for susceptibility testing. The MIC was defined as the lowest concentration of the drug at which there was no visible growth. For quality control and comparative analyses, the susceptibility of all four H. pylori strains to the antibiotics amoxicillin, clarithromycin, and metronidazole were also examined.

H. pylori ATCC 43629 = type: cell-based, Helicobacter pylori
Experimental: as §2

H. pylori ATCC 43504 = type: cell-based, Helicobacter pylori
Experimental: as §2

H. pylori [7] = experiment: Dose and time-dependent killing by TP4; type: cell-based, Helicobacter pylori; conditions: at 2×MIC
Experimental: as §1

[8] = system: H. pylori clinical isolate CI-HC-028; experiment: Anti-H. pylori assessment in vitro (MIC), Example 2; type: cell-based, Helicobacter pylori; conditions: NE: No effect
Experimental: as §2

[9] = Sub-acute oral toxicity of TP4; type: in vivo, C3H/HeN mice; conditions: 3-fold therapeutic doses orally for 14 days, observed days 1 to 28
Experimental: (§3) Acute toxicity was assessed in C3H/HeN mice with 6 animals per group, by single oral administration of TP4 (125 mg/kg). […] Subacute toxicity: animals were administered with TP4 (600 μg dose/day) for 14 days. During dose administration, the animals were observed every day for any signs of toxicity for 28 days test period. The morbidity, mortality, and other clinical signs were recorded and assessed.

[10] = Acute oral toxicity of TP4; set-up: species or system C3H/HeN mice; conditions: single oral dose, 10-fold the in vivo therapeutic dose, 24 hours
Experimental: as §3

[11] = Acute oral toxicity of Epi-1; type: in vivo; conditions: 125 mg/kg, mice
Experimental: Acute oral toxicity was assessed in mice with 6 animals per group, by single oral administration of Epi-1 at 125 mg/kg body weight. Animals were placed under observation for about 48 hr. The mortality, morbidity rate, and clinical signs were recorded.

[12] = Sub-acute oral toxicity of Epi-1; type: in vivo, mice
Experimental: Sub-acute oral toxicity was assessed with over a test period of 14 days in which mice were given 600 μg/mouse/day. During the study period, animals were observed daily for clinical signs and mortality.

[13] = 2.5 mg applied to skin, daily for 7 days, Balb/c mice
Experimental: Dermal toxicity was assessed in Balb/c mice, through administering daily doses of Epi-1 (2.5 mg/animal) for 7 days [40, 41]. Animals were kept under observation for a minimum of 48 h. Skin abnormalities were recorded.

Compound: CCCCCCCCCCCCOS(=O)(=O)[O-].[Na+] [SDS, reference compound]
- ocular appearance [1]: severe lacrimation, swelling of the eyelids, and elevated blood vessels in conjunctivae
- Abnormality iris, grading ([1]; Day 1): 0
- Chemosis, grading ([1]; Day 1): 1.5
- Conjunctivae redness, grading ([1]; Day 1): 1
- Corneal opacity, grading ([1]; Day 1): 1
- Abnormality iris, grading ([1]; Day 3): 0
- Chemosis, grading ([1]; Day 3): 1.5
- Conjunctivae redness, grading ([1]; Day 3): 1
- Corneal opacity, grading ([1]; Day 3): 1
- Abnormality iris, grading ([1]; Day 5): 0
- Chemosis, grading ([1]; Day 5): 2
- Conjunctivae redness, grading ([1]; Day 5): 1
- Corneal opacity, grading ([1]; Day 5): 1
- Abnormality iris, grading ([1]; Day 7): 0
- Chemosis, grading ([1]; Day 7): 2
- Conjunctivae redness, grading ([1]; Day 7): 1
- Corneal opacity, grading ([1]; Day 7): 1
- Abnormality iris, grading ([1]; Recovery, Day 14): 0
- Chemosis, grading ([1]; Recovery, Day 14): 1.5
- Conjunctivae redness, grading ([1]; Recovery, Day 14): 0.5
- Corneal opacity, grading ([1]; Recovery, Day 14): 0.5
- appearance of the skin (Dermal toxicity of TP4): no obvious lesions were observed
- Corneal opacity, Grade ([2]; rabbit eye, 7 days): 2
- Redness of conjunctivae, Grade ([2]; rabbit eye, 7 days): 1
- Reversibility ([2]; rabbit eye): No
- Iris lesion, Grade ([2]; rabbit, in vivo): 0

Compound: CC1(C)S[C@@H]2[C@H](NC(=O)[C@H](N)c3ccc(O)cc3)C(=O)N2[C@H]1C(=O)O [amoxicillin]
- morphology of H. pylori cells (TEM) (H. pylori [3]): low percentage of coccoid morphology
- killing ([4]; within 24 hr): 90%
- drug resistance index (MICp/MICs) (H. pylori [5]): increased slightly after passage 6, and remained constant thereafter
- ultrastructure of H. pylori cells (TEM) (H. pylori [6]): appeared as ‘ghost’ cells, with loose outer membranes

Compound: CC[C@H]1OC(=O)[C@H](C)[C@@H](O[C@H]2C[C@@](C)(OC)[C@@H](O)[C@H](C)O2)[C@H](C)[C@@H](O[C@@H]2O[C@H](C)C[C@H](N(C)C)[C@H]2O)[C@](C)(OC)C[C@@H](C)C(=O)[C@H](C)[C@@H](O)[C@]1(C)O [clarithromycin]
- time taken to 90% reduction [4]: > 24 h
- drug resistance index (MICp/MICs) (H. pylori [5]): gradually increased from passage 3 to the last passage

Compound: Cc1ncc([N+](=O)[O-])n1CCO [metronidazole]
- course of cell count ([4]; 24 h): initial decrease in cell count, but gradually lost activity
- drug resistance index (MICp/MICs) (H. pylori [5]): gradually increased from passage 3 to the last passage

Compound: FDWDSVLKGVEGFVRGYF [TP1]
- MIC (H. pylori ATCC 700392): >12 µg/mL
- MIC (H. pylori ATCC 43629): >12 µg/mL
- MIC (H. pylori ATCC 43504): >12 µg/mL

Compound: FIHHIIGGLFSAGKAIHRLIRRRRR [TP4, Nile tilapia piscidin 4] [listing 1 of 2 here]
- dose dependent effect against H. pylori (killing) (H. pylori [7]): 99.99%
- MIC [8]: 1.5 to 3 µg/mL
- MIC (H. pylori ATCC 700392): 1.5 to 3 µg/mL
- MIC (H. pylori ATCC 43629): 1.5 to 3 µg/mL
- MIC (H. pylori ATCC 43504): 1.5 to 3 µg/mL

Compound: FIHHIIGGLFSAGKAIHRLIRRRRR [TP4, Nile tilapia piscidin 4] [listing 2 of 2 here]
- clinical complications, sub-acute oral toxicity [9]: did not induce clinical complications
- ocular appearance [1]: no ocular lesions were detected
- Abnormality iris, grading ([1]; Day 1): 0
- Chemosis, grading ([1]; Day 1): 0
- Conjunctivae redness, grading ([1]; Day 1): 0
- Corneal opacity, grading ([1]; Day 1): 0
- Abnormality iris, grading ([1]; Day 3): 0
- Chemosis, grading ([1]; Day 3): 0.1
- Conjunctivae redness, grading ([1]; Day 3): 0
- Corneal opacity, grading ([1]; Day 3): 0
- Abnormality iris, grading ([1]; Day 5): 0
- Chemosis, grading ([1]; Day 5): 0.1
- Conjunctivae redness, grading ([1]; Day 5): 0.1
- Corneal opacity, grading ([1]; Day 5): 0.1
- Abnormality iris, grading ([1]; Day 7): 0
- Chemosis, grading ([1]; Day 7): 0.1
- Conjunctivae redness, grading ([1]; Day 7): 0
- Corneal opacity, grading ([1]; Day 7): 0.1
- Abnormality iris, grading ([1]; Recovery, Day 14): 0
- Chemosis, grading ([1]; Recovery, Day 14): 0
- Conjunctivae redness, grading ([1]; Recovery, Day 14): 0
- Corneal opacity, grading ([1]; Recovery, Day 14): 0
- dermal toxicity (Dermal toxicity of TP4; dermal exposure, 14 days observation period): No mortality or damaging effects were observed
- appearance of the skin (Dermal toxicity of TP4): no obvious lesions were observed
- clinical signs, acute oral toxicity [10]: did not exhibit any abnormal clinical signs

Compound: FIHHIIGGLFSVGKHIHSLIHGH [TP3]
- MIC [8]: 8 to 12 µg/mL
- MIC (H. pylori ATCC 700392): 8 to 12 µg/mL
- MIC (H. pylori ATCC 43629): 8 to 12 µg/mL
- MIC (H. pylori ATCC 43504): 8 to 12 µg/mL

Compound: GFIFHIIKGLFHAGKMIHGLV-NH2 [Epi-1, Epinecidin-1]
- clinical abnormalities, morbidity, death [11]: did not induce any clinical abnormalities, morbidity, or death
- whole blood biochemistry (GOT, GPT, BUN, CRE, TBIL, UA) ([12]; after acute and sub-acute oral administration): no significant changes
- clinical abnormalities, morbidity, death ([12]; sub-acute oral, 600 μg/mice): did not induce any clinical abnormalities, morbidity, or death
- dermal irritation, lesions, clinical signs [13]: did not cause any irritation, lesions, or clinical signs
- ocular signs ([2]; days 2 and 3, 1 mg/eye/day): signs of lacrimation
- Corneal opacity, Grade ([2]; rabbit eye, 7 days): 0
- Iris lesion, Grade ([2]; rabbit eye, 7 days): 0
- Redness of conjunctivae, Grade ([2]; rabbit eye, 7 days): 0.1
- Reversibility ([2]; rabbit eye): yes

Compound: QLQGKQVSGEVVQKVLQELIQSVAKP [TP5]
- MIC [8]: >12 µg/mL
- MIC (H. pylori ATCC 700392): >12 µg/mL
- MIC (H. pylori ATCC 43629): >12 µg/mL
- MIC (H. pylori ATCC 43504): >12 µg/mL
